This is an account of results in ChEMBL document CHEMBL5058564, “EUbOPEN Chemogenomics Library 2 (Incucyte)” (2022).

Type in all cases: toxicity, cell-based
In one data set the test system is U2OS. The experiment in a line: Incucyte cell viability with U2OS. The note with it: human, 10 µM, compound concentration 10 uM.
Another data set has as its system HEK-293T. The experiment in a line: Incucyte cell viability with HEK293T. As to conditions: human, 10 µM, compound concentration 10 uM.
A further data set deals with Fibroblast. The experiment in a line: Incucyte cell viability with human fibroblast. As to conditions: 10 µM, compound concentration 10 uM.
The mark [1] stands for this setting: 0 h, replicate number 2, timepoint 0 hours.
Setting [2] is: 6 h, replicate number 1, timepoint 6 hours.
[3] abbreviates: 0 h, replicate number 1, timepoint 0 hours.
Where [4] appears, read: 18 h, replicate number 1, timepoint 18 hours.
The mark [5] stands for this setting: 24 h, replicate number 1, timepoint 24 hours.
Setting [6] is: 24 h, replicate number 2, timepoint 24 hours.
Where [7] appears, read: 6 h, replicate number 2, timepoint 6 hours.
The mark [8] stands for this setting: 12 h, replicate number 1, timepoint 12 hours.
Setting [9] is: 12 h, replicate number 2, timepoint 12 hours.
The mark [10] stands for this setting: 18 h, replicate number 2, timepoint 18 hours.
Also: unitless GR value; below 1 slowed growth and below 0 cell loss.

For the compound `CC(C)CCC[C@@H](C)[C@H]1CC[C@H]2[C@@H]3[C@H](O)C=C4C[C@@H](O)CC[C@]4(C)[C@H]3CC[C@]12C`, the “Growth Rate” value in the data set with U2OS (setting [1]) was 0.03; in the data set on U2OS (setting [2]), 0.98; with HEK-293T (setting [3]), 0.95; with HEK-293T (setting [1]), -0.21; in the data set on HEK-293T (setting [4]), 0.84; in the data set with HEK-293T (setting [5]) it was 0.85. The “Growth Rate” value is 0.96 with HEK-293T (setting [6]); -0.09 in the data set with Fibroblast (setting [1]); 0.24 with Fibroblast (setting [2]); 0.56 with Fibroblast (setting [7]); 0.24 with Fibroblast (setting [8]); 0.91 with Fibroblast (setting [9]). The “Growth Rate” value in the data set on Fibroblast (setting [4]) came out at 0.52; in the data set on Fibroblast (setting [10]) it was 0.84; in the data set on Fibroblast (setting [5]), 0.5; in the data set with Fibroblast (setting [6]), 0.43.

Take `O=C(Nc1cc(-c2ccccc2)nn1-c1ccccc1F)c1ccc([N+](=O)[O-])cc1`: the “Growth Rate” value in the data set on U2OS (setting [7]) was 0.54; in the data set on U2OS (setting [9]) it was 0.84; in the data set on U2OS (setting [10]), 0.9; in the data set on U2OS (setting [6]) it was 0.95; in the data set on HEK-293T (setting [3]) it was 0.97; with HEK-293T (setting [1]), 0.17. For the same compound, the “Growth Rate” value is recorded as -0.14 with Fibroblast (setting [2]); 0.55 in the data set with Fibroblast (setting [7]); 0.25 in the data set with Fibroblast (setting [8]); 0.09 with Fibroblast (setting [4]); 0.95 in the data set on Fibroblast (setting [10]); -0.11 in the data set on Fibroblast (setting [5]).

With `O=C1c2c(Br)c(Br)c(Br)c(Br)c2C(=O)N1c1ncc[nH]1`, the “Growth Rate” value was -1 in the data set on U2OS (setting [1]); 0.46 in the data set on U2OS (setting [2]); 0.89 in the data set on U2OS (setting [9]); 0.89 in the data set with U2OS (setting [4]); 1 with U2OS (setting [10]); 0.98 in the data set on U2OS (setting [5]). Also, the “Growth Rate” value with HEK-293T (setting [3]) is on record as 0.24; in the data set on HEK-293T (setting [1]), 0.87; in the data set on HEK-293T (setting [7]) it was 0.45; with HEK-293T (setting [8]), 0.51; in the data set with HEK-293T (setting [4]), 0.67; in the data set on HEK-293T (setting [5]) it was 0.91. The “Growth Rate” value in the data set with Fibroblast (setting [3]) is recorded as -1; with Fibroblast (setting [1]), 0.94; with Fibroblast (setting [7]) it was 0.37; in the data set with Fibroblast (setting [8]), 0.69; in the data set with Fibroblast (setting [4]) it was 0.62; in the data set on Fibroblast (setting [5]) it was 0.65.

For `CCc1cc2c(cc1-c1cccc(S(=O)(=O)F)c1)C(C)(C)c1[nH]c3cc(C#N)ccc3c1C2=O`, the “Growth Rate” value in the data set with U2OS (setting [3]) was 0.95; in the data set with U2OS (setting [1]), -1; with U2OS (setting [2]), -0.03; with U2OS (setting [7]) it was 0.92; in the data set with U2OS (setting [8]), 0.61; with U2OS (setting [9]) it was 0.81. In addition, the “Growth Rate” value in the data set on U2OS (setting [4]) stood at 0.58; in the data set with U2OS (setting [10]), 0.78; in the data set with U2OS (setting [6]) it was 0.78; in the data set on HEK-293T (setting [3]) it was 0.26; in the data set with HEK-293T (setting [1]) it was 0.5; with HEK-293T (setting [2]), 0.46. In addition, the “Growth Rate” value was found to be 0.37 with HEK-293T (setting [7]); 0.99 with HEK-293T (setting [8]); 0.6 with HEK-293T (setting [9]); 0.78 in the data set with HEK-293T (setting [4]); 0.62 in the data set with HEK-293T (setting [10]); 1 in the data set on HEK-293T (setting [5]). For the same compound, the “Growth Rate” value with Fibroblast (setting [1]) is 0.22; with Fibroblast (setting [2]) it was 0.03; with Fibroblast (setting [7]), 0.66; with Fibroblast (setting [8]), -0.15; with Fibroblast (setting [9]), 0.17; in the data set with Fibroblast (setting [4]) it was -0.21. The entries for the “Growth Rate” value with Fibroblast (setting [10]), in the data set on Fibroblast (setting [5]) and with Fibroblast (setting [6]) were 0.47, -0.18 and 0.58, respectively.

Consider `CC#C[C@@H](CC(=O)O)c1ccc(OCc2cccc(-c3ccc(C(F)(F)F)cc3)c2)cc1`, for which the “Growth Rate” value in the data set with U2OS (setting [3]) is listed as 0.35; with U2OS (setting [7]) it was 0.69; in the data set with U2OS (setting [9]), 0.96; in the data set on U2OS (setting [4]), 0.85; with U2OS (setting [10]) it was 0.96; in the data set on HEK-293T (setting [7]), 0.55. Besides, the “Growth Rate” value with HEK-293T (setting [9]) is recorded as 0.95; in the data set on HEK-293T (setting [4]), 0.65; in the data set on HEK-293T (setting [10]), 0.93; with HEK-293T (setting [5]), 0.68; in the data set on Fibroblast (setting [2]) it was 0.66; with Fibroblast (setting [7]), -0.08. Besides, the “Growth Rate” value is given as 0.23 with Fibroblast (setting [9]), 0.02 in the data set with Fibroblast (setting [10]), 0.66 with Fibroblast (setting [5]) and 0.31 in the data set on Fibroblast (setting [6]).

`C[C@H](N)COC(=O)[C@@H](CCCCN)NC(=O)Cc1c(-c2ccc3ccccc3c2)[nH]c2c1ccc1ccccc12`: the “Growth Rate” value is on record as 0.46 in the data set with U2OS (setting [2]); 0.89 in the data set with U2OS (setting [8]); 0.83 with U2OS (setting [9]); 0.73 with U2OS (setting [4]); 0.76 with U2OS (setting [10]); 0.88 in the data set on HEK-293T (setting [1]). Besides, the “Growth Rate” value with HEK-293T (setting [8]) is on record as 0.97; in the data set with Fibroblast (setting [3]) it was 0.29; in the data set with Fibroblast (setting [1]), 0.37; in the data set on Fibroblast (setting [2]) it was 0.67; in the data set on Fibroblast (setting [4]) it was 0.71; in the data set on Fibroblast (setting [5]) it was 0.64.

Turning to `CCC(=O)OCC(=O)[C@@]1(OC(=O)CC)[C@@H](C)C[C@H]2[C@@H]3CCC4=CC(=O)C=C[C@]4(C)[C@@]3(Cl)[C@@H](O)C[C@@]21C` [BECLOMETHASONE DIPROPIONATE], the “Growth Rate” value is given as -0.25 with U2OS (setting [3]); 0.62 with U2OS (setting [1]); 0.73 with U2OS (setting [2]); 0.81 in the data set with U2OS (setting [8]); 0.85 in the data set with U2OS (setting [9]); 0.8 in the data set with U2OS (setting [4]). For the same compound, the “Growth Rate” value in the data set with U2OS (setting [10]) was 0.81; with U2OS (setting [5]), 0.78; with U2OS (setting [6]), 0.9; in the data set on HEK-293T (setting [3]), 0.14; with HEK-293T (setting [1]), -0.33; in the data set with HEK-293T (setting [2]) it was 0.91. The “Growth Rate” value in the data set with HEK-293T (setting [8]) stood at 0.61; with HEK-293T (setting [9]), 0.8; in the data set with HEK-293T (setting [4]) it was 0.62; with HEK-293T (setting [10]), 0.78; in the data set with HEK-293T (setting [5]) it was 0.65; with HEK-293T (setting [6]), 0.83. Besides, the “Growth Rate” value in the data set on Fibroblast (setting [3]) is listed as -0.17; in the data set with Fibroblast (setting [1]) it was -0.56.

`Cc1c(C(=O)NN2CCCCC2)nn(-c2ccc(Cl)cc2Cl)c1-c1ccc(Cl)cc1` [RIMONABANT]: the “Growth Rate” value in the data set with U2OS (setting [3]) is given as 0.12; in the data set on U2OS (setting [1]), -1; with U2OS (setting [10]), 0.98; in the data set with U2OS (setting [5]), 0.8; in the data set with HEK-293T (setting [3]) it was 0.19; with HEK-293T (setting [1]), -0.01. In addition, the “Growth Rate” value in the data set on Fibroblast (setting [1]) is listed as 0.97; in the data set on Fibroblast (setting [2]), -0.42; in the data set on Fibroblast (setting [7]), -0.46; in the data set with Fibroblast (setting [8]) it was 0.04; in the data set with Fibroblast (setting [9]), 0; with Fibroblast (setting [4]), -0.03. The “Growth Rate” value in the data set on Fibroblast (setting [10]) was determined as 0.53; with Fibroblast (setting [5]) it was 0.03; in the data set with Fibroblast (setting [6]), 0.42.

For the compound `Cl.NCCc1c[nH]c2ccc(O)cc12` [SEROTONIN HYDROCHLORIDE], the “Growth Rate” value in the data set on U2OS (setting [3]) came out at 0.29; with U2OS (setting [1]) it was 0.12; with U2OS (setting [2]) it was 0.46; with U2OS (setting [7]), 0.79; in the data set with U2OS (setting [8]), 0.38; with U2OS (setting [9]), 0.97. For the same compound, the “Growth Rate” value in the data set with U2OS (setting [4]) worked out at 0.67; in the data set on U2OS (setting [5]), 0.62; in the data set with HEK-293T (setting [3]), 0.58; in the data set on HEK-293T (setting [1]) it was 0.43; in the data set on Fibroblast (setting [1]), 0.19; in the data set with Fibroblast (setting [9]), 1.

Consider `CC(C)(C)c1ccc(-c2coc3ccc(-c4cn[nH]c4)nc23)cc1`, for which the “Growth Rate” value turned out to be 0.4 in the data set on U2OS (setting [3]); 0.79 in the data set on U2OS (setting [9]); 0.76 with U2OS (setting [4]); 0.53 in the data set on U2OS (setting [10]); 0.69 in the data set on U2OS (setting [5]); 0.43 in the data set on U2OS (setting [6]). Further, the “Growth Rate” value with HEK-293T (setting [2]) is 0.36; in the data set on HEK-293T (setting [7]), 0.2; in the data set with HEK-293T (setting [8]), 0.44; with HEK-293T (setting [9]), 0.39; in the data set with HEK-293T (setting [4]) it was 0.66; with HEK-293T (setting [5]) it was 0.67. Further, the “Growth Rate” value with HEK-293T (setting [6]) is 0.62; in the data set with Fibroblast (setting [2]) it was -0.89; with Fibroblast (setting [7]), -0.35; in the data set with Fibroblast (setting [8]), -0.7; in the data set on Fibroblast (setting [9]), 0; in the data set with Fibroblast (setting [4]), -0.62. In addition, the “Growth Rate” value was 0.05 in the data set on Fibroblast (setting [10]), -0.48 in the data set on Fibroblast (setting [5]) and 0.09 with Fibroblast (setting [6]).
